This is an account of results in patent US20150359794A1, “IMPAIRMENT OF THE LARGE RIBOSOMAL SUBUNIT PROTEIN RPL24 BY DEPLETION OR ACETYLATION” (Buck Institute for Research on Aging, priority 2014, published 2015).

Holding throughout (assay type): cell-based, human
The test system of one experiment is ribosomal protein. In words: Acetyl-lysine western blot of ribopellets (ribosomal protein acetylation). Conditions: SKBR3 cells; for ribosomal protein acetylation, including the band that co-migrates with RPL24: western blot of ribopellets (FIG. 4c,d). Here is the method: (§1) Previous studies have shown that pan-inhibitors of class I and II histone deacetylases, like TSA, can rapidly destabilize a number of oncogenic transcripts including HER2 in a cycloheximide-dependent manner (FIG. 9). […] Thus, SKBR3 cells were treated with TSA to evaluate polysome protein acetylation and determine if, similar to RPL24 depletion, histone deacetylase inhibition can affect ribosome assembly dynamics. To detect early (2 h) ribosome or polysome acetylation following histone deacetylase inhibition treatment (1 μM TSA), SKBR3 polysomes were isolated using a discontinuous sucrose gradient as previously described. […] Mass spectrometry studies indicate that 15 ribosomal proteins, 11 large subunit proteins (RPL24 included) and 4 small subunit proteins, underwent at least a two-fold induction in acetylation following 2 h or 6 h TSA treatment (1 μM) (FIG. 4b, FIG. 10a-q).
(§2) Like TSA, the HDAC6 (class IIb)-selective inhibitors, Tubacin and Compound 101, as well as HDAC6 siRNA, all induce tubulin acetylation as expected as well as ribosomal protein acetylation, including the band that co-migrates with RPL24 (FIG. 4c,d, indicated by arrows). […] Thus, the tubulin acetylating effects of pan-histone deacetylase inhibition, known to be mediated by inhibition or knockdown of HDAC6, correspond to the observed ribosome and RPL24 acetylation responses induced by TSA.
(§3) Cells are lysed in RIPA buffer (10 mM Tris-HCL (pH 8.0), 1 mM EDTA, 0.5 mM EGTA, 1% triton X-100, 0.1% sodium deoxycholate, 0.1% SDS, 140 mM NaCl, 20 mM NaF, Complete EDTA-free protease inhibitor tablets (Roche Diagnostics Corp., Basel, Switzerland) and the phosphatase inhibitor cocktail PhosSTOP (Roche)), the latter two as indicated by the manufacturer's protocol. Equal amounts of protein are diluted in 2× sample buffer. Immunoblots on PVDF (Polyvinyldene Fluoride) membranes are blocked with nonfat milk in tris-buffered saline with 0.05% tween-20 (TBST). The following antibodies are incubated with membranes in 5% nonfat milk in TBST: RPL24 (Proteintech, Chicago, Ill.), Cyclin D1, Rack1, RPL4 (Santa Cruz Biotechnology, Santa Cruz, Calif.), NBS1, GAPDH (EMD Millipore Corporation, Chicago, Ill.), Survivin, β-tubulin, acetyl-lysine, eIF6, acetyl-H2B, H2B, (Cell Signaling Technology, Boston, Mass.), acetyl-tubulin, tubulin (Sigma Aldrich (St. Louis, Mo.))
Cells, plated at […] confluency, are treated as indicated. After treatment, cells are treated with 50 μg/ml cycloheximide for 15 minutes. Cells are lysed with a buffer containing 10 mM HEPES, 10 mM KCl, 75 mM NaCl, 10 mM MgCl2, 0.35% NP40, pH 7.9 supplemented with Complete EDTA-free protease inhibitor tablets, PhosSTOP phosphatase inhibitor tablets (Roche) per manufacturer's instructions, 50 μg/ml cycloheximide, SUPERase RNase inhibitors (Life Technologies) per manufacturer's instructions, 15 μM TSA, and 5 mM nicotinimide to inhibit histone deacetylases. Supernatants are collected as cytoplasmic preparations. Where indicated, pellets containing nuclei are resuspended in RIPA buffer (described above). The suspension is spun at 13,000 rpm for 5 min and supernatants are collected as nuclear preparations.
Ribosomes are subsequently isolated from cytoplasmic preparations as described previously. Briefly, lysates are layered on top of a 12% and 33% discontinuous sucrose gradient and spun at 38,000 rpm for 2 h. The resulting polysome pellet is then resuspended, stripped of RNA with acetic acid, and then pelleted with acetone. The pellet is then resuspended in 8 M urea, 2% CHAPS, and 25 mM dithiothreitol (DTT).
FIG. 4: Ribosomal protein acetylation is induced by histone deacetylase inhibition. (a-c) SKBR3 cells were treated with the indicated drugs for the indicated period of time. (d) SKBR3 cells were transfected with the indicated siRNAs and allowed to incubate for 72 hours. (a, c, d). The indicated western blots were performed in ribopellets, total cytoplasmic lysates, or nuclear extracts. […]

The subject of the next experiment is tubulin. In words: Western blot for tubulin acetylation in SKBR3 cells. To be noted: western blot (FIG. 4c,d).
Description: as §2, §3
FIG. 4: Ribosomal protein acetylation is induced by histone deacetylase inhibition. (a-c) SKBR3 cells were treated with the indicated drugs for the indicated period of time. (d) SKBR3 cells were transfected with the indicated siRNAs and allowed to incubate for 72 hours. (a, c, d). The indicated western blots were performed in ribopellets, total cytoplasmic lysates, or nuclear extracts. (b) Mass spectrometry was performed on ribopellets as described in materials and methods and in FIG. 6. The fold change in acetylated peptide to total peptide case by TSA treatment is plotted. Only proteins that underwent at least a two-fold induction upon TSA treatment are shown. Error bars represent the standard error of the mean for three biological replicates.
On the technique in general: A western blot detects proteins with antibodies after separation by electrophoresis.

Another experiment deals with histone H2B. Kind of experiment: Western blot for histone H2B acetylation in SKBR3 cells. Conditions: western blot (FIG. 4c).
Description: as §2
Cells are lysed in RIPA buffer (10 mM Tris-HCL (pH 8.0), 1 mM EDTA, 0.5 mM EGTA, 1% triton X-100, 0.1% sodium deoxycholate, 0.1% SDS, 140 mM NaCl, 20 mM NaF, Complete EDTA-free protease inhibitor tablets (Roche Diagnostics Corp., Basel, Switzerland) and the phosphatase inhibitor cocktail PhosSTOP (Roche)), the latter two as indicated by the manufacturer's protocol. Equal amounts of protein are diluted in 2× sample buffer. Immunoblots on PVDF (Polyvinyldene Fluoride) membranes are blocked with nonfat milk in tris-buffered saline with 0.05% tween-20 (TBST). […]

A further experiment deals with HER2 mRNA. In words: Northern blot of HER2 transcript levels. Conditions: SKBR3 cells, cycloheximide 50 μg/ml, 6 h with TSA 1 μM. The procedure: as §1
Cells are harvested and RNA is extracted using Trizol (Life Technologies) per manufacturer's protocol. Northern blots are performed as previously described. Briefly, RNA is then electrophoresed into 1% agarose-formaldehyde gels and transferred onto PVDF membranes. Membranes are then hybridized with ^32P-labelled cDNA probes for HER2 or GAPDH, washed, and visualized by autoradiography.
SKBR3 cells were treated with TSA (1 μM, 6 h) and/or cycloheximide (CX, 50 μg/ml, 6 h) or with the respective vehicle controls. […]

Take `O=C(NO)c1cnc(NC2(c3cccc(F)c3)CCCCC2)nc1` [Compound 101]: in the experiment on ribosomal protein, the “ribosomal protein acetylation, including the band that co-migrates with RPL24” value was “induce”. The tubulin acetylation result in the experiment on tubulin was “induce”.

In the case of `Nc1ccccc1NC(=O)c1ccc(CNC(=O)OCc2cccnc2)cc1` [Entinostat], in the experiment on ribosomal protein (even at a dose of 20 μM (FIG. 4c)), the ribosomal protein acetylation result is given as “does not alter”. In addition, the tubulin acetylation entry in the experiment with tubulin was “without acetylating tubulin”. The “histone H2B acetylation” value in the experiment on histone H2B is listed as “induces”.

For the molecule `O=C(CCCCCCC(=O)Nc1ccc([C@H]2O[C@@H](CSc3nc(-c4ccccc4)c(-c4ccccc4)o3)C[C@@H](c3ccc(CO)cc3)O2)cc1)NO` [Tubacin], in the experiment on ribosomal protein, the “ribosomal protein acetylation, including the band that co-migrates with RPL24” value was “induce”. Besides, the tubulin acetylation entry with tubulin is reported as “induce”.

For `C[C@@H]1C[C@@H]([C@H](O)CC2CC(=O)NC(=O)C2)C(=O)[C@@H](C)C1` [cycloheximide], the “effect on TSA-induced HER2 mRNA decay” value in the experiment on HER2 mRNA is recorded as “abrogated”.
